Key:
Assay in all cases: OncoPanel cytotoxicity assay
Assay type in all cases: cell-based
A-673 = conditions: Homo sapiens, A673, 72 hour incubation
Experimental: (§1) Cells were grown in RPMI 1640, 10% FBS, 2 mM L-alanyl-L-Glutamine, 1 mM Na Pyruvate, or a special medium in a humidified atmosphere of 5% CO2 at 37° C. Cells were seeded into 384-well plates and incubated in a humidified atmosphere of 5% CO2 at 37° C. Test compounds were added 24 hours post cell seeding. At the same time, a time zero, untreated cell plate was generated as a control. After a 72 hour incubation period, cells were fixed and stained with nuclear dye to allow visualization of nuclei.
(§2) Compounds were serially diluted 3.16-fold and assayed over 10 concentrations of inhibitor in a final assay concentration of 0.1% DMSO from the highest test concentration specified in the sample information chapter. Automated fluorescence microscopy was carried out using a GE Healthcare InCell Analyzer 1000, and images were collected with a 4× objective. Twelve bit tiff images were acquired using the InCell Analyzer 1000 3.2 and analyzed with Developer Toolbox 1.6 software.
(§3) Cell proliferation was measured by the signal intensity of the incorporated nuclear dye. The cell proliferation assay output is referred to as the relative cell count. To determine the cell proliferation end point, the cell proliferation data output is transformed to percent of control (POC) using the following formula: […]
(§4) Relative cell count IC50 (IC50) is the test compound's concentration that produces 50% of the cell proliferation inhibitory response or 50% cytotoxicity level. IC50 values were calculated using nonlinear regression to fit data to a sigmoidal 4 point, 4 parameter One-Site dose response model, where: y (fit)=A+[(B−A)/(1+((C/x)̂D))]. Curve-fitting, IC50 calculations and report generation were performed using a custom data reduction engine MathIQ based software (AIM). […] In these cases, the IC50 values were expressed as 40 μM and 10 μM, respectively (Table 2).

A101D = conditions: Homo sapiens, 72 hour incubation
Experimental: as §1, §2, §3, §4

A375 = conditions: Homo sapiens, A-375, 72 hour incubation
Experimental: as §1, §2, §3, §4

A431 = conditions: Homo sapiens, A-431, 72 hour incubation
Experimental: as §1, §2, §3, §4

A549 = conditions: Homo sapiens, 72 hour incubation
Experimental: as §1, §2, §3, §4

A7 = conditions: Homo sapiens, 72 hour incubation
Experimental: as §1, §2, §3, §4

AsPC-1 = conditions: Homo sapiens, ASPC1, 72 hour incubation
Experimental: as §1, §2, §3, §4

BHT-101 = conditions: Homo sapiens, 72 hour incubation
Experimental: as §1, §2, §3, §4

CAL-62 = conditions: Homo sapiens, 72 hour incubation
Experimental: as §1, §2, §3, §4

Caki-1 = conditions: Homo sapiens, 72 hour incubation
Experimental: as §1, §2, §3, §4

Colo 201 = conditions: Homo sapiens, 72 hour incubation
Experimental: as §1, §2, §3, §4

DB = conditions: Homo sapiens, 72 hour incubation
Experimental: as §1, §2, §3, §4

EFM-19 = conditions: Homo sapiens, 72 hour incubation
Experimental: as §1, §2, §3, §4

HCT-8 = conditions: Homo sapiens, 72 hour incubation
Experimental: as §1, §2, §3, §4

HLE = conditions: Homo sapiens, 72 hour incubation
Experimental: as §1, §2, §3, §4

HLF = conditions: Homo sapiens, 72 hour incubation
Experimental: as §1, §2, §3, §4

HS 746T = conditions: Homo sapiens, Hs746T, 72 hour incubation
Experimental: as §1, §2, §3, §4

JAR = conditions: Homo sapiens, 72 hour incubation
Experimental: as §1, §2, §3, §4

KHOS-240S = conditions: Homo sapiens, 72 hour incubation
Experimental: as §1, §2, §3, §4

LS-174T = conditions: Homo sapiens, LS174T, 72 hour incubation
Experimental: as §1, §2, §3, §4

MCF7 = conditions: Homo sapiens, 72 hour incubation
Experimental: as §1, §2, §3, §4

MDA MB 231 = conditions: Homo sapiens, 72 hour incubation
Experimental: as §1, §2, §3, §4

MG-63 = conditions: Homo sapiens, 72 hour incubation
Experimental: as §1, §2, §3, §4

MHH-PREB-1 = conditions: Homo sapiens, 72 hour incubation
Experimental: as §1, §2, §3, §4

NCI-H520 = conditions: Homo sapiens, 72 hour incubation
Experimental: as §1, §2, §3, §4

NCI-H596 = conditions: Homo sapiens, 72 hour incubation
Experimental: as §1, §2, §3, §4

OVCAR3 = conditions: Homo sapiens, OVCAR-3, 72 hour incubation
Experimental: as §1, §2, §3, §4

RKO-AS45-1 = conditions: Homo sapiens, RKOAS451, 72 hour incubation
Experimental: as §1, §2, §3, §4

SCC-4 = conditions: Homo sapiens, 72 hour incubation
Experimental: as §1, §2, §3, §4

SCC-9 = conditions: Homo sapiens, 72 hour incubation
Experimental: as §1, §2, §3, §4

SK-NEP-1 = conditions: Homo sapiens, 72 hour incubation
Experimental: as §1, §2, §3, §4

SKOV3 = conditions: Homo sapiens, SK-OV-3, 72 hour incubation
Experimental: as §1, §2, §3, §4

SNU-16 = conditions: Homo sapiens, 72 hour incubation
Experimental: as §1, §2, §3, §4

SNU-5 = conditions: Homo sapiens, 72 hour incubation
Experimental: as §1, §2, §3, §4

SU.86.86 = conditions: Homo sapiens, 72 hour incubation
Experimental: as §1, §2, §3, §4

SW1353 = conditions: Homo sapiens, 72 hour incubation
Experimental: as §1, §2, §3, §4

SW579 = conditions: Homo sapiens, 72 hour incubation
Experimental: as §1, §2, §3, §4

Thp1 = conditions: Homo sapiens, THP-1, 72 hour incubation
Experimental: as §1, §2, §3, §4

CC[C@@H]1CNC2(CC2)CN1C(=O)[C@@H]1C[C@@H](F)CN1C(=O)C1=C(C(C)C)N2C(=N[C@@](C)(c3ccc(Cl)nc3)[C@H]2c2ccc(Cl)c(F)c2)S1 [Compound A, [(5R,6S)-5-(4-Chloro-3-fluorophenyl)-6-(6-chloropyridin-3-yl)-6-methyl-3-(propan-2-yl)-5,6-dihydroimidazo[2,1-b][1,3]thiazol-2-yl][(2S,4R)-2-{[(6R)-6-ethyl-4,7-diazaspiro[2.5]oct-7-yl]carbonyl}-4-fluoropyrrolidin-1-yl]methanone]
IC50 (A-673): > 40 µM
IC50 (A101D): 0.233 µM
IC50 (A375): 0.317 µM
IC50 (A431): > 40 µM
IC50 (A549): 0.401 µM
IC50 (A7): > 40 µM
IC50 (AsPC-1): > 40 µM
IC50 (BHT-101): > 40 µM
IC50 (CAL-62): > 40 µM
IC50 (Caki-1): 0.275 µM
IC50 (Colo 201): 34.6 µM
IC50 (DB): > 40 µM
IC50 (EFM-19): > 40 µM
IC50 (HCT-8): 0.506 µM
IC50 (HLE): 28.9 µM
IC50 (HLF): > 40 µM
IC50 (HS 746T): 38.9 µM
IC50 (JAR): 0.549 µM
IC50 (KHOS-240S): > 40 µM
IC50 (LS-174T): 0.497 µM
IC50 (MCF7): 0.661 µM
IC50 (MDA MB 231): > 40 µM
IC50 (MG-63): > 40 µM
IC50 (MHH-PREB-1): > 40 µM
IC50 (NCI-H520): > 40 µM
IC50 (NCI-H596): > 40 µM
IC50 (OVCAR3): > 40 µM
IC50 (RKO-AS45-1): 0.471 µM
IC50 (SCC-4): > 40 µM
IC50 (SCC-9): > 40 µM
IC50 (SK-NEP-1): > 40 µM
IC50 (SKOV3): > 40 µM
IC50 (SNU-16): 28.5 µM
IC50 (SNU-5): > 40 µM
IC50 (SU.86.86): > 40 µM
IC50 (SW1353): 1.68 µM
IC50 (SW579): > 40 µM
IC50 (Thp1): > 40 µM

CC1(C)CCC2(CC1)N[C@@H](C(=O)N[C@@H]1CC[C@@H](C(N)=O)OC1)[C@H](c1ccnc(Cl)c1F)[C@]21C(=O)Nc2cc(Cl)ccc21 [Compound B, (3′R,4′S,5′R)—N-[(3R,6S)-6-carbamoyltetrahydro-2H-pyran-3-yl]-6″-chloro-4′-(2-chloro-3-fluoropyridin-4-yl)-4,4-dimethyl-2″-oxo-1″,2″-dihydrodispiro[cyclohexane-1,2′-pyrrolidine-3′,3″-indole]-5′-carboxamide]
IC50 (A-673): 9.21 µM
IC50 (A101D): 0.0314 µM
IC50 (A375): 0.0434 µM
IC50 (A431): > 10 µM
IC50 (A549): 0.0769 µM
IC50 (A7): 3.59 µM
IC50 (AsPC-1): > 10 µM
IC50 (BHT-101): > 10 µM
IC50 (CAL-62): > 10 µM
IC50 (Caki-1): 0.0387 µM
IC50 (Colo 201): 7.33 µM
IC50 (DB): 5.98 µM
IC50 (EFM-19): > 10 µM
IC50 (HCT-8): 0.0516 µM
IC50 (HLE): > 10 µM
IC50 (HLF): > 10 µM
IC50 (HS 746T): 5.85 µM
IC50 (JAR): 0.0861 µM
IC50 (KHOS-240S): > 10 µM
IC50 (LS-174T): 0.0615 µM
IC50 (MCF7): 0.0833 µM
IC50 (MDA MB 231): > 10 µM
IC50 (MG-63): > 10 µM
IC50 (MHH-PREB-1): 8.3 µM
IC50 (NCI-H520): > 10 µM
IC50 (NCI-H596): > 10 µM
IC50 (OVCAR3): > 10 µM
IC50 (RKO-AS45-1): 0.074 µM
IC50 (SCC-4): > 10 µM
IC50 (SCC-9): > 10 µM
IC50 (SK-NEP-1): > 10 µM
IC50 (SKOV3): > 10 µM
IC50 (SNU-16): 9.92 µM
IC50 (SNU-5): > 10 µM
IC50 (SU.86.86): 8.86 µM
IC50 (SW1353): 0.0853 µM
IC50 (SW579): 9.61 µM
IC50 (Thp1): > 10 µM
